Values joined by “and” are separate entries in the source; they are usually repeats but may differ in a detail not shown here. Equal values may be shown once. Toxic doses and inconclusive results are not listed. The calls were made as follows: active = survival T/C of 150% or more; inactive = T/C below 125% in these data.
System: P388 leukemia ip, CD2F1 mice, survival T/C
Test: NCI In Vivo Anticancer Drug Screen. Data for tumor model P388 Leukemia (intraperitoneal) in CD2F1 (CDF1) mice
Conditions: endpoint: median survival time, higher = longer survival
In short: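 Mice carrying the transplanted tumor received test compound or vehicle. Survival was recorded in each group, and the value is the treated-group measurement divided by that of the vehicle-treated control group.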

[1] = dose: 12.5 mg/kg/injection, schedule: Q01DX005 (ip), vehicle: saline with Tween-80
[2] = dose: 25.0 mg/kg/injection, schedule: Q01DX005 (ip), vehicle: saline with Tween-80
[3] = dose: 50.0 mg/kg/injection, schedule: Q01DX009 (ip), vehicle: Klucel (hydroxypropylcellulose) (HPC)
[4] = dose: 100.0 mg/kg/injection, schedule: Q01DX009 (ip), vehicle: Klucel (hydroxypropylcellulose) (HPC)
[5] = dose: 200.0 mg/kg/injection, schedule: Q01DX009 (ip), vehicle: Klucel (hydroxypropylcellulose) (HPC)
[6] = dose: 60.0 mg/kg/injection, schedule: Q01DX005 (ip), vehicle: saline with Tween-80
[7] = dose: 120.0 mg/kg/injection, schedule: Q01DX005 (ip), vehicle: saline with Tween-80
[8] = dose: 240.0 mg/kg/injection, schedule: Q01DX005 (ip), vehicle: saline with Tween-80
[9] = dose: 50.0 mg/kg/injection, schedule: Q01DX009 (ip), vehicle: saline with Tween-80
[10] = dose: 100.0 mg/kg/injection, schedule: Q01DX009 (ip), vehicle: saline with Tween-80
[11] = dose: 50.0 mg/kg/injection, schedule: Q01DX005 (ip), vehicle: saline with Tween-80
[12] = dose: 100.0 mg/kg/injection, schedule: Q01DX005 (ip), vehicle: saline with Tween-80
[13] = dose: 200.0 mg/kg/injection, schedule: Q01DX005 (ip), vehicle: saline with Tween-80
[14] = dose: 50.0 mg/kg/injection, schedule: Q01DX005 (ip), vehicle: Klucel (hydroxypropylcellulose) (HPC)
[15] = dose: 100.0 mg/kg/injection, schedule: Q01DX005 (ip), vehicle: Klucel (hydroxypropylcellulose) (HPC)
[16] = dose: 200.0 mg/kg/injection, schedule: Q01DX005 (ip), vehicle: Klucel (hydroxypropylcellulose) (HPC)

Measured: T/C

O=C1OC(OC2OC(=O)C(Cl)=C2Cl)C(Cl)=C1Cl (stereo not given)
inactive: [1] 104 % of control and 109 % of control | [2] 116 % of control and 117 % of control

CC12CCC(O)C=C1CCC1C2CCC2(C)C(C3=CC(=O)OC3)CCC12O (stereo not given)
inactive: dose: 3.1 micrograms/kg/injection, schedule: Q01DX009 (ip), vehicle: saline with Tween-80 101 % of control | dose: 6.2 micrograms/kg/injection, schedule: Q01DX009 (ip), vehicle: saline with Tween-80 100 % of control | dose: 12.5 micrograms/kg/injection, schedule: Q01DX009 (ip), vehicle: saline with Tween-80 96 % of control | dose: 25.0 micrograms/kg/injection, schedule: Q01DX009 (ip), vehicle: saline with Tween-80 102 % of control

CN1CCc2c1c1c(c3c4ccccc4n(C)c23)N(C)CC1
inactive: dose: 6.25 mg/kg/injection, schedule: Q01DX005 (ip), vehicle: Klucel (hydroxypropylcellulose) (HPC) 103 % of control | dose: 12.5 mg/kg/injection, schedule: Q01DX005 (ip), vehicle: Klucel (hydroxypropylcellulose) (HPC) 104 % of control | dose: 25.0 mg/kg/injection, schedule: Q01DX005 (ip), vehicle: Klucel (hydroxypropylcellulose) (HPC) 107 % of control

O=C(Nc1cccc(C(=O)Nc2ccc(C3=NCCN3)cc2)c1)c1ccc(C2=NCCN2)cc1
inactive: dose: 6.25 mg/kg/injection, schedule: Q01DX009 (ip), vehicle: saline 118 % of control | dose: 6.25 mg/kg/injection, schedule: Q04DX003 (ip), vehicle: saline 100 % of control | dose: 12.5 mg/kg/injection, schedule: Q01DX009 (ip), vehicle: saline 118 % of control | dose: 12.5 mg/kg/injection, schedule: Q04DX003 (ip), vehicle: saline 100 % of control | dose: 25.0 mg/kg/injection, schedule: Q04DX003 (ip), vehicle: saline 100 % of control

COC(=O)c1ccn2c1CCC2
inactive: dose: 25.0 mg/kg/injection, schedule: Q01DX009 (ip), vehicle: Klucel (hydroxypropylcellulose) (HPC) 91 % of control | [3] 91 % of control | [4] 95 % of control | [5] 98 % of control | dose: 400.0 mg/kg/injection, schedule: Q01DX009 (ip), vehicle: Klucel (hydroxypropylcellulose) (HPC) 91 % of control

CC1(CCc2ccc(N(CCCl)CCCl)cc2)NC(=O)NC1=O (stereo not given)
inactive: dose: 3.13 mg/kg/injection, schedule: Q01DX009 (ip), vehicle: Klucel (hydroxypropylcellulose) (HPC) 105 % of control | dose: 6.25 mg/kg/injection, schedule: Q01DX009 (ip), vehicle: Klucel (hydroxypropylcellulose) (HPC) 103 % of control | dose: 12.5 mg/kg/injection, schedule: Q01DX009 (ip), vehicle: Klucel (hydroxypropylcellulose) (HPC) 103 % of control | [3] 103 % of control

COC1=C(OC)C(=O)C2=C(OCCCCO2)C1=O
inactive: dose: 15.0 mg/kg/injection, schedule: Q01DX005 (ip), vehicle: saline with Tween-80 104 % of control | dose: 30.0 mg/kg/injection, schedule: Q01DX005 (ip), vehicle: saline with Tween-80 103 % of control | [6] 101 % of control and 107 % of control | [7] 100 % of control | [8] 99 % of control

CC12CCC3C(CCC4(O)C=CCCC34C=O)C1(O)CC(O)C2c1ccc(=O)oc1 (stereo not given)
inactive: dose: 25.0 mg/kg/injection, schedule: Q01DX009 (ip), vehicle: saline with Tween-80 97 % of control | [9] 91 % of control | [10] 91 % of control | dose: 200.0 mg/kg/injection, schedule: Q01DX009 (ip), vehicle: saline with Tween-80 91 % of control

COC(=O)c1nc2c(c(=O)n(C)c(=O)n2C)n1C
inactive: [6] 94 % of control | [7] 96 % of control | [8] 89 % of control

COC(=O)CC(CCCCCCCCCCCCC(C)C)OC(C)=O (stereo not given)
inactive: dose: 8.13 mg/kg/injection, schedule: Q01DX005 (ip), vehicle: Klucel (hydroxypropylcellulose) (HPC) 94 % of control | dose: 16.25 mg/kg/injection, schedule: Q01DX005 (ip), vehicle: Klucel (hydroxypropylcellulose) (HPC) 96 % of control | dose: 32.5 mg/kg/injection, schedule: Q01DX005 (ip), vehicle: Klucel (hydroxypropylcellulose) (HPC) 99 % of control | dose: 65.0 mg/kg/injection, schedule: Q01DX005 (ip), vehicle: Klucel (hydroxypropylcellulose) (HPC) 112 % of control

CC1(C)COC(CC2CCCCC2)=N1
inactive: [9] 104 % of control | dose: 50.0 mg/kg/injection, schedule: Q04DX003 (ip), vehicle: saline with Tween-80 100 % of control | [10] 100 % of control | dose: 100.0 mg/kg/injection, schedule: Q04DX003 (ip), vehicle: saline with Tween-80 104 % of control | dose: 200.0 mg/kg/injection, schedule: Q04DX003 (ip), vehicle: saline with Tween-80 90 % of control

CC(O)c1cc2c(cc1Br)OCO2 (stereo not given)
inactive: dose: 100.0 mg/kg/injection, schedule: Q01DX001 (ip), vehicle: Klucel (hydroxypropylcellulose) (HPC) 105 % of control | dose: 200.0 mg/kg/injection, schedule: Q01DX001 (ip), vehicle: Klucel (hydroxypropylcellulose) (HPC) 104 % of control | dose: 400.0 mg/kg/injection, schedule: Q01DX001 (ip), vehicle: Klucel (hydroxypropylcellulose) (HPC) 104 % of control

COC(=O)N1[C@@H]2C=CC=CC=C2[C@@H](OC)N1C(=O)OC
inactive: [11] 101 % of control | [12] 103 % of control | [13] 103 % of control

CCC1(c2ccccc2)NN1C1CCCCC1 (stereo not given)
inactive: dose: 6.25 mg/kg/injection, schedule: Q01DX005 (ip), vehicle: saline with Tween-80 100 % of control | [1] 96 % of control | [2] 92 % of control | [11] 96 % of control | [12] 100 % of control | [13] 105 % of control

O=C(NC1CCCN1C(=O)/C=C/c1ccccc1)NC1CCCN1C(=O)/C=C/c1ccccc1 (stereo not given)
inactive: [6] 100 % of control | [7] 88 % of control | [8] 101 % of control

O=C(O)c1ccc2ncc(-c3ccccc3)nc2c1
inactive: [14] 100 % of control | [15] 100 % of control | [16] 95 % of control

CC(CN(C)C)C(=O)C(=Cc1ccccc1)C(=O)C(C)CN(C)C (stereo not given)
inactive: dose: 60.0 mg/kg/injection, schedule: Q01DX005 (ip), vehicle: saline 100 % of control | dose: 120.0 mg/kg/injection, schedule: Q01DX005 (ip), vehicle: saline 108 % of control | dose: 240.0 mg/kg/injection, schedule: Q01DX005 (ip), vehicle: saline 102 % of control

O=C1CCC(C(Sc2ccccc2)Sc2ccccc2)C1 (stereo not given)
inactive: [3] 110 % of control | [4] 106 % of control | [5] 93 % of control

CCOC(=O)c1cc(Cl)ccc1OS(N)(=O)=O
inactive: dose: 60.0 mg/kg/injection, schedule: Q01DX005 (ip), vehicle: Klucel (hydroxypropylcellulose) (HPC) 105 % of control | dose: 120.0 mg/kg/injection, schedule: Q01DX005 (ip), vehicle: Klucel (hydroxypropylcellulose) (HPC) 100 % of control | dose: 240.0 mg/kg/injection, schedule: Q01DX005 (ip), vehicle: Klucel (hydroxypropylcellulose) (HPC) 99 % of control

CC(=O)Nc1ccc(S(=O)(=O)Oc2noc3ccc(Br)cc23)cc1
inactive: [14] 98 % of control | [15] 97 % of control | [16] 90 % of control

COc1cccc2c1ccc1nonc12
inactive: [11] 95 % of control | [12] 88 % of control | [13] 86 % of control

C1CSCN1
inactive: dose: 50.0 mg/kg/injection, schedule: Q01DX005 (ip), vehicle: saline 107 % of control | dose: 100.0 mg/kg/injection, schedule: Q01DX005 (ip), vehicle: saline 100 % of control | dose: 200.0 mg/kg/injection, schedule: Q01DX005 (ip), vehicle: saline 115 % of control

CCN(CC)CC.[CH-]1CCCCC1.[CH-]1CCCCC1.[CH3-].[Cl-].[Cl-].[Sn+4]
inactive: dose: 6.0 mg/kg/injection, schedule: Q01DX005 (ip), vehicle: saline 107 % of control | dose: 12.0 mg/kg/injection, schedule: Q01DX005 (ip), vehicle: saline 96 % of control

CC(C)OCc1cccc2ccnc(COC(C)C)c12
inactive: dose: 100.0 mg/kg/injection, schedule: Q01DX001 (ip), vehicle: saline 102 % of control | dose: 200.0 mg/kg/injection, schedule: Q01DX001 (ip), vehicle: saline 100 % of control | dose: 400.0 mg/kg/injection, schedule: Q01DX001 (ip), vehicle: saline 95 % of control
